Assay results from US11958863B2, “Binding competitors for use in macrophilin-binding pharmaceutical assays and methods of use thereof” (Siemens Healthcare Diagnostics Inc., priority 2018, dated 2024).

Columns and labels:
[1] = test system: endogenous binding proteins (immunophilins such as FKBPs); assay: Everolimus (EVRO) DIMENSION immunoassay standard curves with displacers; conditions: whole blood sample
Protocol: (§1) The automated DIMENSION® assay system (Siemens Healthcare Diagnostics Inc., Tarrytown, NY), the everolimus (EVRO) assay method uses an immunoassay technique in which free and everolimus-bound antibody-enzyme conjugate is separated using magnetic particles. The assay antibody used for this assay is a mouse monoclonal antibody (cell line: 155-M1). The assay was performed using a method specific FLEX® reagent cartridge (Siemens Healthcare Diagnostics Inc., Tarrytown, NY). The FLEX® reagent cartridge contains a pretreatment reagent, antibody-β-galactosidase conjugate, everolimus analog immobilized on chromium dioxide particles, chlorophenol red β-d-galactopyranoside (CPRG) substrate, and diluent to hydrate the tablets. To perform the EVRO assay, a sample cup (or SSC) containing the whole blood sample to be analyzed and an EVRO FLEX® reagent cartridge were placed appropriately on the DIMENSION® system. The DIMENSION® system mixed and lysed the whole blood sample in the presence of the pretreatment reagent that contains detergents and a displacer (FK506 or FK506 analogs as described previously). This reagent contains a displacer which acts to displace everolimus in the sample from endogenous binding proteins (immunophilins such as FKBPs, etc.). The lysed sample was then mixed with the antibody enzyme conjugate. The everolimus present in the sample was bound by the everolimus antibody. Magnetic particles coated with everolimus analog were added to bind free (unbound) antibody-enzyme conjugate. The reaction mixture was then separated magnetically. Following separation, the supernatant containing the everolimus-antibody-enzyme complex was transferred to a cuvette and mixed with the substrate, chlorophenol red β-d-galactopyranoside (CPRG). β-galactosidase catalyzes the hydrolysis of CPRG to produce chlorophenol red (CPR) that absorbs light maximally at 577 nm. The change in absorbance at 577 nm due to the formation of CPR is directly proportional to the amount of everolimus in the patient's sample and is measured using a bichromatic (577 nm, 700 nm) rate technique.
The assay was conducted in the absence of any displacer as well as in the presence of the following displacers: tacrolimus (FK506, as represented by Formula I), FK506 Ester (disclosed in U.S. Pat. No. 7,186,518), FK506 C24 succinate (as represented by Formula VII), Reduced FK506 (as represented by Formula IV), FK506 22-oxime-32-isocyanatoacetatethyl ester (as represented by Formula VI), and FK506 oxime (as represented by Formula V).
The ability of the FK analogs to displace everolimus drug in the everolimus assay is a function of their FKBP (macrophilin) binding. So the curve size after adding the displacer indicates the ability of their FKBP binding: the larger the curve size, the better the binding.

[2] = test system: tacrolimus assay antibody (1E2 Clone); assay: Cross-reactivity with tacrolimus assay antibody; type: binding; conditions: for Cross-reactivity with tacrolimus assay antibody (in words): 1E2 clone, compared with the '518 patent analog; for % Cross-Reactivity: tacrolimus assay antibody 1E2 clone
Protocol: (§2) Table 2 indicates the cross-reactivities detected for the various displacers of the present disclosure with the everolimus assay antibody (155-M1), while Table 3 indicates the cross-reactivities detected for the various displacers of the present disclosure with the tacrolimus assay antibody (1E2 clone).
Next, the cross-reactivity of each of the analogs used in the everolimus assay was tested with the antibody used in the tacrolimus assay (Table 3). While efforts may be made to minimize reagent carryover from the everolimus assay to the tacrolimus assay, an automated instrument may run both everolimus and tacrolimus (or sirolimus) assays simultaneously. Therefore, due to the use of a large amount of displacer (tacrolimus analogs) present in the everolimus assay, the displacer could be carried into the tacrolimus assay, and this would cause a falsely elevated signal in the tacrolimus assay if cross-reaction were observed.

[3] = test system: everolimus assay antibody (155-M1 Clone); assay: Cross-reactivity with everolimus assay antibody; type: binding, mouse; conditions: for % Cross-Reactivity: everolimus assay antibody 155-M1 clone
Protocol: as §1, §2

Row | SMILES | Everolimus standard curve signal with displacer ([1]; BV 0 ng/mL everolimus) | Everolimus standard curve signal with displacer ([1]; BV 5.5 ng/mL everolimus) | Everolimus standard curve signal with displacer ([1]; BV 11.2 ng/mL everolimus) | Everolimus standard curve signal with displacer ([1]; BV 21.9 ng/mL everolimus) | Everolimus standard curve signal with displacer ([1]; BV 34.3 ng/mL everolimus) | Cross-reactivity with tacrolimus assay antibody (in words) [2] | % Cross-Reactivity [2] [%] | % Cross-Reactivity [3] [%] | Cross-reactivity with everolimus assay antibody (in words) ([3]; 155-M1 clone)
1 | CCC[C@@H]1CC(C)C[C@H](C)C[C@H](OC)[C@H]2O[C@@](O)(C(=O)C(=O)N3CCCC[C@H]3C(=O)O[C@H](C(C)C[C@@H]3CC[C@@H](OC(=O)NCC(=O)OCC)[C@H](OC)C3)[C@H](C)[C@@H](O)CC1=NOCC(=O)O)[C@H](C)C[C@@H]2OC (stereo partly drawn) [FK-506-1] | 18 | 68 | 102 | 140 | 154 | much lower cross-reactivities | 1.5 | 0.02 | 
2 | C=CC[C@@H]1/C=C(\C)C[C@H](C)C[C@H](OC)[C@H]2O[C@@](O)(C(=O)C(=O)N3CCCC[C@H]3C(=O)O[C@H](/C(C)=C/[C@@H]3CC[C@@H](O)[C@H](OC)C3)[C@H](C)[C@@H](O)CC1=O)[C@H](C)C[C@@H]2OC [FK506, Tacrolimus, reference compound] | 17 | 67 | 104 | 143 | 156 |  | 100 | 0.01 | substantially no cross-reactivity
3 | C=CC[C@@H]1/C=C(\C)C[C@H](C)C[C@H](OC)[C@H]2O[C@@](O)(C(=O)C(=O)N3CCCC[C@H]3C(=O)O[C@H](/C(C)=C/[C@@H]3CC[C@@H](O)[C@H](OC)C3)[C@H](C)[C@@H](OC(=O)CCC(=O)O)CC1=O)[C@H](C)C[C@@H]2OC [24-Succinate FK506, FK506 C24 succinate] | 16 | 71 | 108 | 145 | 157 | much lower cross-reactivities | 13.3 | 0.01 | 
